# Where a SMILES comes first, the peptide text is derived from it. Where no end group is shown, it is not given here. [ ]: non-standard residue; d: D form. ξ: configuration not given here. ξαMeBip(2'-Et,4'-OMe) = CCc1cc(OC)ccc1-c1ccc(CC(C)(N)C(=O)O)cc1; ξBip(2'-Et-4'-OMe) = CCc1cc(OC)ccc1-c1ccc(CC(N)C(=O)O)cc1; αMePhe(2,6-F2) = C[C@](N)(Cc1c(F)cccc1F)C(=O)O; ξαMePhe(2,6-F2) = CC(N)(Cc1c(F)cccc1F)C(=O)O; αMePhe(2-F) = C[C@](N)(Cc1ccccc1F)C(=O)O; αMeBip(OMe) = alpha-methylated Bip(OMe); ξαMe(hhPhe) = CC(N)(CCCc1ccccc1)C(=O)O; ξαMePhe(2-F) = CC(N)(Cc1ccccc1F)C(=O)O; hhPhe = N[C@@H](CCCc1ccccc1)C(=O)O; ξhhPhe = NC(CCCc1ccccc1)C(=O)O; ξαMeD = CC(N)(CC(=O)O)C(=O)O; αMeP = C[C@@]1(C(=O)O)CCCN1; ξαMeP = CC1(C(=O)O)CCCN1; Ac5c = NC1(C(=O)O)CCCC1; ξαMeS = CC(N)(CO)C(=O)O; Aib = CC(C)(N)C(=O)O
# B1: Seq. ID. No. 211 (peptide)
# peptide: VVH[Aib]EGTFTSD[αMeBip(OMe)][hhPhe]
# modifications: not fully specified (C-terminus); printed as VVH-Aib-EGTFTSD-(αMe-Bip(OMe))-(APPA)
# Key:
# [1] = test system: RIN5F (Rat Insulinoma) cells; assay: In vitro glucose-dependent insulin secretion (RIN5F cell assay); assay type: cell-based; conditions: 16.7-mM glucose load, n = 3, mean ± S.D.
# Method: RIN5F (Rat Insulinoma) cells were cultured in RPMI 1640 medium supplemented with sodium pyruvate (1 mM) HEPES and Glucose (4.5 g/L) in a humidified incubator (5% CO2), at 37° C. After trypsinization, RIN5F cells were seeded at a concentration of 0.2×10^6 cells per well, in 12 well plates. The cells were grown overnight to 80% confluence and insulin secretion experiments were performed as follows (Montrose-Rafizadeh C., et al., Mol. Cell. Endo. 1997, 130, 109.; Wang, X., et al., Endocrinology 2001, 5, 1820).
# The cells were washed once with PBS solution followed by 40 min. incubation in fresh Krebs-Ringer Balanced Buffer containing NaCl (115 mmol/L), KCl (4.7 mmol/L), CaCl2 (1.28 mmol/L), MgSO4.7H2O (1.2 mmol/L), KH2PO4 (1.2 mmol/L), NaHCO3 (10 mmol/L) and HEPES (25 mmol/L), containing Glucose (1.1 mM) and B.S.A (0.5%), pH 7.4. The buffer was replaced after 40 min. and the cells were incubated (37° C.) with the test peptidomimetics, at different concentration, for 30 min., both in the presence (16.7 mM) and absence (0 mM) of glucose load. The supernatant was collected and the insulin amount was measured by ultra sensitive Rat insulin ELISA kit (Crystal Chem, IL). The protein was estimated in the supernatant using Bicinchoninic Acid kit, according to the manufacturer's protocol (Sigma Aldrich, MO). The total insulin content obtained in Pico-gram (pg) was divided with the total protein (μg) in order to normalize for differences in cell density between wells.
# human glucagon receptor = human glucagon receptor (human, UniProt P47871 26-477); assay: cell-based or functional assay
# Chain of human glucagon receptor (P47871 26-477): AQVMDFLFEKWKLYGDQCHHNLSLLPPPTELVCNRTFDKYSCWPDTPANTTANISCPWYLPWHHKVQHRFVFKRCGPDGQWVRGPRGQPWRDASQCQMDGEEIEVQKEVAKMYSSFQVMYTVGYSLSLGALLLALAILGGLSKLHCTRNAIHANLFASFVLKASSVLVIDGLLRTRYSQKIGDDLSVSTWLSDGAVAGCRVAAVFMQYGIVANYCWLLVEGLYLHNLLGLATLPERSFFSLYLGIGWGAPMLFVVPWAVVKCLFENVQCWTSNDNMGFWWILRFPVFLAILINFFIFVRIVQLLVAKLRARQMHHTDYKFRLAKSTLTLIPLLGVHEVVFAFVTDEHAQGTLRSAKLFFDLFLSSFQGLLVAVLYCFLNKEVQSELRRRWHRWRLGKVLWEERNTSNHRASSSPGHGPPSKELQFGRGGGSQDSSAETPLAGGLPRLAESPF
Molecule,Insulin secretion ([1]; 0.1 nM test compd.) [pg/µg/h],Insulin secretion ([1]; 1 nM test compd.) [pg/µg/h],Insulin secretion ([1]; 10 nM test compd.) [pg/µg/h],"cAMP production (pmol/ml/µg prt) with saturated glucagon peptide, at 1 nM (human glucagon receptor) [pmol/ml/µg prt]","cAMP production (pmol/ml/µg prt) with saturated glucagon peptide, at 10 nM (human glucagon receptor) [pmol/ml/µg prt]","cAMP production (pmol/ml/µg prt) with saturated glucagon peptide, at 100 nM (human glucagon receptor) [pmol/ml/µg prt]","cAMP production (pmol/ml/µg prt) with saturated glucagon peptide, at 1 µM (human glucagon receptor) [pmol/ml/µg prt]","cAMP production (pmol/ml/µg prt) with saturated glucagon peptide, at 10 µM (human glucagon receptor) [pmol/ml/µg prt]"
"CCc1cc(OC)ccc1-c1ccc(CC(C)(NC(=O)[C@H](CC(=O)O)NC(=O)C(C)(CO)NC(=O)[C@@H](NC(=O)C(C)(Cc2ccccc2F)NC(=O)[C@@H](NC(=O)CNC(=O)[C@H](CCC(N)=O)NC(=O)C2(C)CCCN2C(=O)[C@H](Cc2c[nH]cn2)NC(=O)[C@@H](N)C(C)C)[C@@H](C)O)[C@@H](C)O)C(=O)NC(C)(CCCc2ccccc2)C(N)=O)cc1 (some centres unmarked) [compound 168] (H-VH[ξαMeP]QGT[ξαMePhe(2-F)]T[ξαMeS]D[ξαMeBip(2'-Et,4'-OMe)][ξαMe(hhPhe)]-NH2)",11.9 ± 0.17,14.2 ± 0.13,27.6 ± 0.16,,,,,
"CCc1cc(OC)ccc1-c1ccc(CC(NC(=O)C(C)(CC(=O)O)NC(=O)C(C)(CO)NC(=O)[C@@H](NC(=O)C(C)(Cc2c(F)cccc2F)NC(=O)[C@@H](NC(=O)CNC(=O)[C@H](CCC(=O)O)NC(=O)C2(C)CCCN2C(=O)[C@H](Cc2c[nH]cn2)NC(=O)[C@@H](N)C(C)C)[C@@H](C)O)[C@@H](C)O)C(=O)NC(C)(CCCc2ccccc2)C(N)=O)cc1 (some centres unmarked) [compound 130] (H-VH[ξαMeP]EGT[ξαMePhe(2,6-F2)]T[ξαMeS][ξαMeD][ξBip(2'-Et-4'-OMe)][ξαMe(hhPhe)]-NH2)",15.6 ± 0.33,21.8 ± 0.16,35.6 ± 0.26,,,,,
"CCc1cc(OC)ccc1-c1ccc(CC(C)(NC(=O)[C@H](CC(=O)O)NC(=O)C(C)(CO)NC(=O)[C@@H](NC(=O)[C@H](Cc2ccccc2)NC(=O)[C@@H](NC(=O)CNC(=O)[C@H](CCC(N)=O)NC(=O)C2(C)CCCN2C(=O)[C@H](Cc2c[nH]cn2)NC(=O)[C@@H](N)C(C)C)[C@@H](C)O)[C@@H](C)O)C(=O)NC(C)(CCCc2ccccc2)C(N)=O)cc1 (some centres unmarked) [compound 160] (H-VH[ξαMeP]QGTFT[ξαMeS]D[ξαMeBip(2'-Et,4'-OMe)][ξαMe(hhPhe)]-NH2)",16.8 ± 0.20,22.7 ± 0.29,36.6 ± 0.31,,,,,
CCc1cc(OC)ccc1-c1ccc(CC(NC(=O)C(C)(CC(=O)O)NC(=O)C(C)(CO)NC(=O)[C@@H](NC(=O)C(C)(Cc2ccccc2F)NC(=O)[C@@H](NC(=O)CNC(=O)[C@H](CCC(=O)O)NC(=O)[C@H](CO)NC(=O)[C@H](Cc2c[nH]cn2)NC(=O)[C@@H](N)C(C)C)[C@@H](C)O)[C@@H](C)O)C(=O)NC(C)(CCCc2ccccc2)C(N)=O)cc1 (some centres unmarked) [compound 119] (H-VHSEGT[ξαMePhe(2-F)]T[ξαMeS][ξαMeD][ξBip(2'-Et-4'-OMe)][ξαMe(hhPhe)]-NH2),12.4 ± 0.22,15.2 ± 0.32,29.6 ± 0.50,,,,,
CCc1cc(OC)ccc1-c1ccc(CC(NC(=O)[C@H](CC(=O)O)NC(=O)[C@H](CO)NC(=O)[C@@H](NC(=O)[C@H](Cc2ccccc2)NC(=O)[C@@H](NC(=O)CNC(=O)[C@H](CCC(N)=O)NC(=O)C2(NC(=O)[C@H](Cc3c[nH]cn3)NC(=O)[C@@H](N)C(C)C)CCCC2)[C@@H](C)O)[C@@H](C)O)C(=O)NC(C)(CCCc2ccccc2)C(N)=O)cc1 (some centres unmarked) [compound 85] (H-VH[Ac5c]QGTFTSD[ξBip(2'-Et-4'-OMe)][ξαMe(hhPhe)]-NH2),12.1 ± 0.52,14.1 ± 0.16,28.0 ± 0.36,,,,,
"CCc1cc(OC)ccc1-c1ccc(CC(C)(NC(=O)[C@H](CC(=O)O)NC(=O)[C@H](CO)NC(=O)[C@@H](NC(=O)C(C)(Cc2c(F)cccc2F)NC(=O)[C@@H](NC(=O)CNC(=O)[C@H](CCC(N)=O)NC(=O)[C@H](CO)NC(=O)[C@H](Cc2c[nH]cn2)NC(=O)[C@@H](N)C(C)C)[C@@H](C)O)[C@@H](C)O)C(=O)NC(CCCc2ccccc2)C(N)=O)cc1 (some centres unmarked) [compound 25] (H-VHSQGT[ξαMePhe(2,6-F2)]TSD[ξαMeBip(2'-Et,4'-OMe)][ξhhPhe]-NH2)",12.6 ± 0.20,15.9 ± 0.31,28.4 ± 0.11,,,,,
"CCc1cc(OC)ccc1-c1ccc(CC(NC(=O)[C@H](CC(=O)O)NC(=O)[C@H](CO)NC(=O)[C@@H](NC(=O)C(C)(Cc2c(F)cccc2F)NC(=O)[C@@H](NC(=O)CNC(=O)[C@H](CCC(=O)O)NC(=O)[C@H](CO)NC(=O)[C@H](Cc2c[nH]cn2)NC(=O)[C@@H](N)C(C)C)[C@@H](C)O)[C@@H](C)O)C(=O)NC(C)(CCCc2ccccc2)C(N)=O)cc1 (some centres unmarked) [compound 103] (H-VHSEGT[ξαMePhe(2,6-F2)]TSD[ξBip(2'-Et-4'-OMe)][ξαMe(hhPhe)]-NH2)",12.3 ± 0.33,14.1 ± 0.36,28.0 ± 0.16,,,,,
"CCc1cc(OC)ccc1-c1ccc(CC(C)(NC(=O)C(C)(CC(=O)O)NC(=O)[C@H](CO)NC(=O)[C@@H](NC(=O)C(C)(Cc2c(F)cccc2F)NC(=O)[C@@H](NC(=O)CNC(=O)[C@H](CCC(=O)O)NC(=O)[C@H](C)NC(=O)[C@H](Cc2c[nH]cn2)NC(=O)[C@@H](N)C(C)C)[C@@H](C)O)[C@@H](C)O)C(=O)NC(CCCc2ccccc2)C(N)=O)cc1 (some centres unmarked) [compound 78] (H-VHAEGT[ξαMePhe(2,6-F2)]TS[ξαMeD][ξαMeBip(2'-Et,4'-OMe)][ξhhPhe]-NH2)",16.3 ± 0.15,22.4 ± 0.21,36.2 ± 0.11,,,,,
"CCc1cc(OC)ccc1-c1ccc(CC(C)(NC(=O)C(C)(CC(=O)O)NC(=O)[C@H](CO)NC(=O)[C@@H](NC(=O)[C@H](Cc2ccccc2)NC(=O)[C@@H](NC(=O)CNC(=O)[C@H](CCC(N)=O)NC(=O)C2(C)CCCN2C(=O)[C@H](Cc2c[nH]cn2)NC(=O)[C@@H](N)C(C)C)[C@@H](C)O)[C@@H](C)O)C(=O)NC(CCCc2ccccc2)C(N)=O)cc1 (some centres unmarked) [compound 60] (H-VH[ξαMeP]QGTFTS[ξαMeD][ξαMeBip(2'-Et,4'-OMe)][ξhhPhe]-NH2)",15.6 ± 0.33,21.8 ± 0.16,35.6 ± 0.26,,,,,
"CCc1cc(OC)ccc1-c1ccc(CC(C)(NC(=O)[C@H](CC(=O)O)NC(=O)C(C)(CO)NC(=O)[C@@H](NC(=O)C(C)(Cc2c(F)cccc2F)NC(=O)[C@@H](NC(=O)CNC(=O)[C@H](CCC(N)=O)NC(=O)C(C)(C)NC(=O)[C@H](Cc2c[nH]cn2)NC(=O)[C@@H](N)C(C)C)[C@@H](C)O)[C@@H](C)O)C(=O)NC(C)(CCCc2ccccc2)C(N)=O)cc1 (some centres unmarked) [compound 175] (H-VH[Aib]QGT[ξαMePhe(2,6-F2)]T[ξαMeS]D[ξαMeBip(2'-Et,4'-OMe)][ξαMe(hhPhe)]-NH2)",12.4 ± 0.22,15.2 ± 0.32,29.6 ± 0.50,,,,,
"CCc1cc(OC)ccc1-c1ccc(CC(C)(NC(=O)C(C)(CC(=O)O)NC(=O)[C@H](CO)NC(=O)[C@@H](NC(=O)[C@H](Cc2ccccc2)NC(=O)[C@@H](NC(=O)CNC(=O)[C@H](CCC(N)=O)NC(=O)[C@H](C)NC(=O)[C@H](Cc2c[nH]cn2)NC(=O)[C@@H](N)C(C)C)[C@@H](C)O)[C@@H](C)O)C(=O)NC(C)(CCCc2ccccc2)C(N)=O)cc1 (some centres unmarked) [compound 182] (H-VHAQGTFTS[ξαMeD][ξαMeBip(2'-Et,4'-OMe)][ξαMe(hhPhe)]-NH2)",13.1 ± 0.11,14.9 ± 0.17,28.8 ± 0.44,,,,,
B1,,,,6,5,2,0,0
VVH[αMeP]QGT[αMePhe(2-F)]TSD[αMeBip(OMe)][hhPhe]-NH2 [Seq. ID. No. 216],,,,0,0,0,0,0
VVHSEGT[αMePhe(2-F)]TSD[αMeBip(OMe)][hhPhe]-NH2 [Seq. ID. No. 217],,,,5,2,0,0,0
"VVH[Aib]EGT[αMePhe(2,6-F2)]TSD[αMeBip(OMe)][hhPhe]-NH2 [Seq. ID. No. 227]",,,,19,17,15,14,12

# — patent US20120264685A1 (priority 2009, published 2012)
